Assay results: patent US20250282820A1, “PEPTIDE COMPLEX HAVING TRKB BINDING ACTIVITY” (PEPTIDREAM INC, priority 2022, published 2025)
*1 amine or outer side, *2 acyl side, *3 side chain or, on linkers, in order; H or OH if unused. Where a SMILES comes first, the peptide text is derived from it. Bridges are numbered along the chain shown (N, C = ends). Roman numbers before positions name the chains, in order. [ ]: non-standard residue; d: D form. CO(CH2CH2O)13CH2CH2CO = O=C(CCOCCOCCOCCOCCOCCOCCOCCOCCOCCOCCOCCOCCOCCC(=O)[*:2])[*:1]; 3Pal = N[C@@H](Cc1cccnc1)C(=O)O

Assays:
[1] = target: T1, TrkB (CellSensor TrkB-NFAT-bla CHO-K1 Cell) (Homo sapiens, UniProt Q16620); test: pERK1/2 AlphaLISA assay (phosphorylation of ERK) for TrkB agonist activity; format: cell-based; conditions: class = peptide concentration giving 50% or more activity; BDNF maximum signal = 100%, no stimulation = 0%; 15 minutes of stimulation
T1 construct: host or cells: CHO-K1 (CellSensor TrkB-NFAT-bla CHO-K1)
T1 sequence (Q16620 32-822): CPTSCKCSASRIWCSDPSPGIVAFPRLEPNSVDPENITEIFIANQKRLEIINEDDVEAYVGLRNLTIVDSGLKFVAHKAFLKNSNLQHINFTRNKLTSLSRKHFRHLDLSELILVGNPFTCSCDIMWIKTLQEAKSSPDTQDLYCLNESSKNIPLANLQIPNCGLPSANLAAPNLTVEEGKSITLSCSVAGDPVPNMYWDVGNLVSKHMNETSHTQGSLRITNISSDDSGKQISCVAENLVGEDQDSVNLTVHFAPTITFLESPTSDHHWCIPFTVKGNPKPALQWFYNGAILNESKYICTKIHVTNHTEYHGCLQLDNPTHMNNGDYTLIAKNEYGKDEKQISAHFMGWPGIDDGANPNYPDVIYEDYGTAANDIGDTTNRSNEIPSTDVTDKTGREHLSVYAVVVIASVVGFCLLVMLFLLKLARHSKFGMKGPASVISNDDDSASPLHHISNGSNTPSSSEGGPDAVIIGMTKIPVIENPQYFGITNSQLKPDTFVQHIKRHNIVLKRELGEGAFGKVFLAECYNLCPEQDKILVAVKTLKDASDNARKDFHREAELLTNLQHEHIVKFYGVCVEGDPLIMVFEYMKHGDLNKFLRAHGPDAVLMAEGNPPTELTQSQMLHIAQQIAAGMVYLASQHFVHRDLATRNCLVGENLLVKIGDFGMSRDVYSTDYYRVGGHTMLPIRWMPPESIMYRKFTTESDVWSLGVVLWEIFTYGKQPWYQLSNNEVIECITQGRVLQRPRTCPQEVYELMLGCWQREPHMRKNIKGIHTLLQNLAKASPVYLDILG
How it was run: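 TrkB-NFAT-bla CHO-K1 cells were starved 4 h in 0.1% BSA medium and then stimulated 15 min with peptide or BDNF; p-ERK1/2 (Thr202/Tyr204) in the lysate was read by AlphaLISA SureFire. Activity % was scaled to the BDNF maximum (100%) and no stimulation (0%); A = ≥50% at 1 nM, B = ≥50% at 10 nM; curves were 8 points, 4-fold dilutions from 100 nM.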

[2] = target: TrkB (Homo sapiens, UniProt Q16620); test: PathHunter eXpress TrkB Functional Assay (phosphorylation of TrkB); format: cell-based; conditions: maximum signal induced by BDNF = 100%; stimulation for 3 hours
TrkB, sequence (Q16620 32-822): as above
How it was run: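 PathHunter TrkB cells, cultured 48 h, were stimulated 3 h with peptide or BDNF, then detection reagent added for 60 min at room temperature; luminescence read. Activity (%) scaled from unstimulated (0%) to maximal BDNF signal (100%); peptides tested over 0.006104-100 nM, 0.032-100 nM or 0.01-10 nM ranges.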

Structure (SMILES) | pERK (aLISA) Assay Results [1] | Emax [2]
CC(C)[C@@H]1NC(=O)[C@H](Cc2cccnc2)NC(=O)[C@H](CCC(=O)O)NC(=O)[C@H](CO)NC(=O)[C@H](Cc2ccc(O)cc2)NC(=O)[C@H]([C@@H](C)O)NC(=O)[C@@H]2CCCN2C(=O)[C@H](Cc2c[nH]c3ccccc23)NC(=O)[C@H](Cc2cccnc2)NC(=O)[C@H](Cc2ccc(O)cc2)NC(=O)[C@@H]2CCCN2C(=O)[C@H](CCC(=O)O)NC(=O)[C@H](Cc2ccccc2)NC(=O)CSC[C@@H](C(=O)NCC(=O)N[C@@H](CCCCNC(=O)CCOCCOCCOCCOCCOCCOCCOCCOCCOCCOCCOCCOCCOCCC(=O)NCCCC[C@H](NC(=O)CNC(=O)[C@@H]2CSCC(=O)N[C@@H](Cc3ccccc3)C(=O)N[C@@H](CCC(=O)O)C(=O)N3CCC[C@H]3C(=O)N[C@@H](Cc3ccc(O)cc3)C(=O)N[C@@H](Cc3cccnc3)C(=O)N[C@@H](Cc3c[nH]c4ccccc34)C(=O)N3CCC[C@H]3C(=O)N[C@@H]([C@@H](C)O)C(=O)N[C@@H](Cc3ccc(O)cc3)C(=O)N[C@@H](CO)C(=O)N[C@@H](CCC(=O)O)C(=O)N[C@@H](Cc3cccnc3)C(=O)N[C@@H](C(C)C)C(=O)N[C@@H](CCC(=O)O)C(=O)N2)C(N)=O)C(N)=O)NC(=O)[C@H](CCC(=O)O)NC1=O [compound 56] (I: {CH2CO}-FEPY[3Pal]WPTYSE[3Pal]VECGK-NH2 / II: {CH2CO}-FEPY[3Pal]WPTYSE[3Pal]VECGK-NH2; linker I:17-II:17 via CO(CH2CH2O)13CH2CH2CO; thioether I:N-I:15, II:N-II:15) | A (The peptide with 50% or more activity when 1 nM of the peptide was added was evaluated as A) | 93%
CC(C)[C@@H]1NC(=O)[C@H](Cc2cccnc2)NC(=O)[C@H](CCC(=O)O)NC(=O)[C@H](CO)NC(=O)[C@H](Cc2ccc(O)cc2)NC(=O)[C@H]([C@@H](C)O)NC(=O)[C@@H]2CCCN2C(=O)[C@H](Cc2c[nH]c3ccccc23)NC(=O)[C@H](Cc2cccnc2)NC(=O)[C@H](Cc2ccc(O)cc2)NC(=O)[C@@H]2CCCN2C(=O)[C@H](CO)NC(=O)[C@H](Cc2ccccc2)NC(=O)CSC[C@@H](C(=O)NCC(=O)N[C@@H](CCCCNC(=O)CCOCCOCCOCCOCCOCCOCCOCCOCCOCCOCCOCCOCCOCCC(=O)NCCCC[C@H](NC(=O)CNC(=O)[C@@H]2CSCC(=O)N[C@@H](Cc3ccccc3)C(=O)N[C@@H](CO)C(=O)N3CCC[C@H]3C(=O)N[C@@H](Cc3ccc(O)cc3)C(=O)N[C@@H](Cc3cccnc3)C(=O)N[C@@H](Cc3c[nH]c4ccccc34)C(=O)N3CCC[C@H]3C(=O)N[C@@H]([C@@H](C)O)C(=O)N[C@@H](Cc3ccc(O)cc3)C(=O)N[C@@H](CO)C(=O)N[C@@H](CCC(=O)O)C(=O)N[C@@H](Cc3cccnc3)C(=O)N[C@@H](C(C)C)C(=O)N[C@@H](CCC(=O)O)C(=O)N2)C(N)=O)C(N)=O)NC(=O)[C@H](CCC(=O)O)NC1=O [compound 48] (I: {CH2CO}-FSPY[3Pal]WPTYSE[3Pal]VECGK-NH2 / II: {CH2CO}-FSPY[3Pal]WPTYSE[3Pal]VECGK-NH2; linker I:17-II:17 via CO(CH2CH2O)13CH2CH2CO; thioether I:N-I:15, II:N-II:15) | A (The peptide with 50% or more activity when 1 nM of the peptide was added was evaluated as A) | 102%
